7 molecules from patent US20250289787A1, “HERBICIDAL 2-OXO-NICOTINIC ACID DERIVATIVES” (SYNGENTA CROP PROTECTION AG, priority 2022, published 2025) can be followed below.

Holding throughout (format): in vivo
Assay [1] concerns Ipomoea hederacea (IPOHE). Briefly: Pre-emergence test, herbicidal damage. Details: key: 5=81-100%; 4=61-80%; 3=41-60%; 2=21-40%; 1=1-20%; 0=no damage to the plant; -=not tested. The note with it: 1000 g/ha unless otherwise stated, evaluated after 13 days, five-point scale.
In assay [2] the test system is Setaria faberi (SETFA). Briefly: Post-emergence test, herbicidal damage. More on the design: key: 5=81-100%; 4=61-80%; 3=41-60%; 2=21-40%; 1=1-20%; 0=no damage to the plant; -=not tested. To be noted: sprayed after 8 days cultivation, 1000 g/ha unless otherwise stated, evaluated after 13 days, five-point scale. The protocol: (§1) Seeds of a variety of test species are sown in standard soil in pots Amaranthus palmeri (AMAPA), (Amaranthus retoflexus (AMARE), Echinochloa crus-galli (ECHCG), Zea mays (ZEAMX), Ipomoea 5 hederacea (IPOHE), and Setaria faberi (SETFA). After 8 days cultivation under controlled conditions in a glasshouse (at 24° C./16° C., day/night; 14 hours light; 65% humidity), the plants are sprayed with an aqueous spray solution derived from the formulation of the technical active ingredient in acetone/water (50:50) solution containing 0.5% Tween 20 (polyoxyethelyene sorbitan monolaurate, CAS RN 9005-64-5). Compounds are applied at 1000 g/ha unless otherwise stated. The test plants are then grown in a glasshouse under controlled conditions in a glasshouse (at 24° C./16° C., day/night; 14 hours light; 65% humidity) and watered twice daily. After 13 days the test is evaluated for the percentage damage caused to the plant. The biological activities are shown in the following table on a five-point scale (5=81-100%; 4=61-80%; 3=41-60%; 2=21-40%; 1=1-20%; 0=no damage to the plant; -=not tested).

Assay [3] deals with Amaranthus retoflexus (AMARE). Briefly: Post-emergence test, herbicidal damage. More on the design: key: 5=81-100%; 4=61-80%; 3=41-60%; 2=21-40%; 1=1-20%; 0=no damage to the plant; -=not tested. The note with it: sprayed after 8 days cultivation, 1000 g/ha unless otherwise stated, evaluated after 13 days, five-point scale. The protocol:
as §1

Assay [4] deals with Amaranthus palmeri (AMAPA). Put plainly: Post-emergence test, herbicidal damage. Details: key: 5=81-100%; 4=61-80%; 3=41-60%; 2=21-40%; 1=1-20%; 0=no damage to the plant; -=not tested. The note with it: sprayed after 8 days cultivation, 1000 g/ha unless otherwise stated, evaluated after 13 days, five-point scale. The protocol:
as §1

Assay [5] deals with Echinochloa crus-galli (ECHCG). Briefly: Post-emergence test, herbicidal damage. More on the design: key: 5=81-100%; 4=61-80%; 3=41-60%; 2=21-40%; 1=1-20%; 0=no damage to the plant; -=not tested. To be noted: sprayed after 8 days cultivation, 1000 g/ha unless otherwise stated, evaluated after 13 days, five-point scale. The protocol:
as §1

In assay [6] the test system is Ipomoea hederacea (IPOHE). Put plainly: Post-emergence test, herbicidal damage. Details: key: 5=81-100%; 4=61-80%; 3=41-60%; 2=21-40%; 1=1-20%; 0=no damage to the plant; -=not tested. To be noted: sprayed after 8 days cultivation, 1000 g/ha unless otherwise stated, evaluated after 13 days, five-point scale. The protocol:
as §1

The subject of assay [7] is Zea mays (ZEAMX). Briefly: Post-emergence test, herbicidal damage. More on the design: key: 5=81-100%; 4=61-80%; 3=41-60%; 2=21-40%; 1=1-20%; 0=no damage to the plant; -=not tested. To be noted: sprayed after 8 days cultivation, 1000 g/ha unless otherwise stated, evaluated after 13 days, five-point scale. The protocol: as §1
Assay [8] relates to Setaria faberi (SETFA). Briefly: Pre-emergence test, herbicidal damage. The note with it: 1000 g/ha unless otherwise stated, evaluated after 13 days, five-point scale. Details: key: 5=81-100%; 4=61-80%; 3=41-60%; 2=21-40%; 1=1-20%; 0=no damage to the plant; -=not tested.
Assay [9] deals with Zea mays (ZEAMX). Briefly: Pre-emergence test, herbicidal damage. More on the design: key: 5=81-100%; 4=61-80%; 3=41-60%; 2=21-40%; 1=1-20%; 0=no damage to the plant; -=not tested. The note with it: 1000 g/ha unless otherwise stated, evaluated after 13 days, five-point scale.
In assay [10] the test system is Amaranthus palmeri (AMAPA). Briefly: Pre-emergence test, herbicidal damage. To be noted: 1000 g/ha unless otherwise stated, evaluated after 13 days, five-point scale.
Assay [11] concerns Echinochloa crus-galli (ECHCG). Briefly: Pre-emergence test, herbicidal damage. Details: key: 5=81-100%; 4=61-80%; 3=41-60%; 2=21-40%; 1=1-20%; 0=no damage to the plant; -=not tested. To be noted: 1000 g/ha unless otherwise stated, evaluated after 13 days, five-point scale.
For assay [12], the system named is Amaranthus retoflexus (AMARE). Briefly: Pre-emergence test, herbicidal damage. Details: key: 5=81-100%; 4=61-80%; 3=41-60%; 2=21-40%; 1=1-20%; 0=no damage to the plant; -=not tested. To be noted: 1000 g/ha unless otherwise stated, evaluated after 13 days, five-point scale.

For the molecule `Cc1c(-c2ccc(Cl)c(Cl)c2)c(C(=O)O)c(=O)n(-c2ccc(Cl)cc2F)c1C` [Compound 26, 1-(4-chloro-2-fluoro-phenyl)-4-(3,4-dichlorophenyl)-5,6-dimethyl-2-oxo-pyridine-3-carboxylic acid], the “percentage damage caused to the plant, IPOHE” value in assay [1] is reported as 1 (1=1-20%); in assay [6], 0. Besides, the “percentage damage caused to the plant, SEFTA” value in the assay on Setaria faberi (SETFA) [2] and with Setaria faberi (SETFA) [8] was 1 (1=1-20%) each time. For the same molecule, the “percentage damage caused to the plant, AMARE” value in [3] and in assay [12] was 3 (3=41-60%) each time. In addition, the “percentage damage caused to the plant, AMAPA” value in assay [4] and in assay [10] was 3 (3=41-60%) each time. Further, the “percentage damage caused to the plant, ECHCG” value is on record as 1 (1=1-20%) in assay [5] and 0 in [11]. Further, the “percentage damage caused to the plant, ZEAMX” value in the assay on Zea mays (ZEAMX) [7] and in the assay on Zea mays (ZEAMX) [9] was 1 (1=1-20%) each time.
Turning to `Cc1c(Cl)c(-c2ccc(Cl)c(Cl)c2)c(C(=O)O)c(=O)n1-c1ccc(Cl)cc1F` [Compound 25, 5-chloro-1-(4-chloro-2-fluoro-phenyl)-4-(3,4-dichlorophenyl)-6-methyl-2-oxo-pyridine-3-carboxylic acid], the “percentage damage caused to the plant, IPOHE” value in assay [1] and in assay [6] was 1 (1=1-20%) in each case. The “percentage damage caused to the plant, SEFTA” value in the assay on Setaria faberi (SETFA) [2] is on record as 1 (1=1-20%); in the assay with Setaria faberi (SETFA) [8] it was 2 (2=21-40%). Further, the “percentage damage caused to the plant, AMARE” value in [3] was 3 (3=41-60%); in assay [12], 4 (4=61-80%). In addition, the “percentage damage caused to the plant, AMAPA” value in assay [4] was 3 (3=41-60%); in [10] it was 4 (4=61-80%). The “percentage damage caused to the plant, ECHCG” value in assay [5] is listed as 1 (1=1-20%); in [11], 2 (2=21-40%). Besides, the “percentage damage caused to the plant, ZEAMX” value with Zea mays (ZEAMX) [7] and in the assay with Zea mays (ZEAMX) [9] was 1 (1=1-20%) each time.
For the molecule `Cc1c(C2CC2)c(-c2ccc(Cl)c(Cl)c2)c(C(=O)O)c(=O)n1Cc1ccc(Cl)cc1F` [Compound 39, 1-[(4-chloro-2-fluoro-phenyl)methyl]-5-cyclopropyl-4-(3,4-dichlorophenyl)-6-methyl-2-oxo-pyridine-3-carboxylic acid], the “percentage damage caused to the plant, IPOHE” value in [1] was 1 (1=1-20%); in assay [6], 2 (2=21-40%). For the same molecule, the “percentage damage caused to the plant, SEFTA” value in the assay on Setaria faberi (SETFA) [2] is on record as 1 (1=1-20%); with Setaria faberi (SETFA) [8], 2 (2=21-40%). The “percentage damage caused to the plant, AMARE” value in [3] and in assay [12] was 0 each time. Also, the “percentage damage caused to the plant, AMAPA” value in assay [4] and in [10] was 1 (1=1-20%) in each case. Further, the “percentage damage caused to the plant, ECHCG” value in assay [5] and in [11] was 2 (2=21-40%) throughout. Besides, the “percentage damage caused to the plant, ZEAMX” value with Zea mays (ZEAMX) [7] and in the assay with Zea mays (ZEAMX) [9] was 1 (1=1-20%) throughout.
As to `Cc1cc(-c2ccc(Cl)c(Cl)c2)c(C(=O)O)c(=O)n1-c1ccc(F)cc1F` [Compound 14, 4-(3,4-dichlorophenyl)-1-(2,4-difluorophenyl)-6-methyl-2-oxo-pyridine-3-carboxylic acid], the “percentage damage caused to the plant, IPOHE” value in [1] and in assay [6] was 0 throughout. The “percentage damage caused to the plant, SEFTA” value with Setaria faberi (SETFA) [2] was 1 (1=1-20%); in the assay with Setaria faberi (SETFA) [8] it was 0. The “percentage damage caused to the plant, AMARE” value in assay [3] was 1 (1=1-20%); in assay [12], 0. Further, the “percentage damage caused to the plant, AMAPA” value in assay [4] is recorded as 1 (1=1-20%). Moreover, the “percentage damage caused to the plant, ECHCG” value is on record as 1 (1=1-20%) in [5] and 0 in assay [11]. Besides, the results for the “percentage damage caused to the plant, ZEAMX” value in the assay on Zea mays (ZEAMX) [7] and with Zea mays (ZEAMX) [9] were 1 (1=1-20%) and 0, respectively.
`Cc1c(Br)c(-c2ccc(Cl)c(Cl)c2)c(C(=O)O)c(=O)n1-c1ccc(F)cc1F` [Compound 29, 5-bromo-4-(3,4-dichlorophenyl)-1-(2,4-difluorophenyl)-6-methyl-2-oxo-pyridine-3-carboxylic acid]: the “percentage damage caused to the plant, IPOHE” value in assay [1] and in [6] was 1 (1=1-20%) each time. In addition, the “percentage damage caused to the plant, SEFTA” value in the assay on Setaria faberi (SETFA) [2] and with Setaria faberi (SETFA) [8] was 1 (1=1-20%) in each case. Moreover, the “percentage damage caused to the plant, AMARE” value in assay [3] and in [12] was 1 (1=1-20%) each time. Also, the “percentage damage caused to the plant, ECHCG” value in assay [5] and in [11] was 1 (1=1-20%) in each case. For the same molecule, the “percentage damage caused to the plant, ZEAMX” value in the assay with Zea mays (ZEAMX) [7] and with Zea mays (ZEAMX) [9] was 0 in each case.
As for `Cc1cc(-c2ccc(Cl)c(Cl)c2)c(C(=O)O)c(=O)n1Cc1ccc(C(F)(F)F)cc1F` [Compound 27, 4-(3,4-dichlorophenyl)-1-[[2-fluoro-4-(trifluoromethyl)phenyl]methyl]-6-methyl-2-oxo-pyridine-3-carboxylic acid], the “percentage damage caused to the plant, IPOHE” value in [1] was determined as 0. Besides, the “percentage damage caused to the plant, SEFTA” value in the assay on Setaria faberi (SETFA) [2] and in the assay on Setaria faberi (SETFA) [8] was 0 throughout. In addition, the “percentage damage caused to the plant, AMARE” value in assay [3] and in assay [12] was 0 throughout. For the same molecule, the “percentage damage caused to the plant, AMAPA” value in assay [4] and in assay [10] was 1 (1=1-20%) each time. In assay [5], the “percentage damage caused to the plant, ECHCG” value stood at 0. Also, the “percentage damage caused to the plant, ZEAMX” value in the assay with Zea mays (ZEAMX) [7] and in the assay with Zea mays (ZEAMX) [9] was 0 throughout.
`Cc1c(Br)c(-c2ccc(Cl)c(Cl)c2)c(C(=O)O)c(=O)n1-c1ccc(Cl)cc1F` [Compound 21, 5-bromo-1-(4-chloro-2-fluoro-phenyl)-4-(3,4-dichlorophenyl)-6-methyl-2-oxo-pyridine-3-carboxylic acid]: the “percentage damage caused to the plant, SEFTA” value with Setaria faberi (SETFA) [2] and in the assay on Setaria faberi (SETFA) [8] was 1 (1=1-20%) throughout. In addition, the “percentage damage caused to the plant, AMAPA” value in [4] and in assay [10] was 4 (4=61-80%) in each case. In addition, the results for the “percentage damage caused to the plant, ECHCG” value in [5] and in assay [11] were 0 and 1 (1=1-20%), respectively. In assay [6], the “percentage damage caused to the plant, IPOHE” value is listed as 1 (1=1-20%). The results for the “percentage damage caused to the plant, ZEAMX” value in the assay with Zea mays (ZEAMX) [7] and in the assay on Zea mays (ZEAMX) [9] were 1 (1=1-20%) and 0, respectively. The “percentage damage caused to the plant, AMARE” value in assay [12] is 4 (4=61-80%).
